# Data from US20240277767A1, “METHODS AND USES” (PROLEUKOCYTE AB, priority 2021, published 2024).
# What was measured:
# NK cells [1] = test: IFNγ release (ELISA) by pre-treated NK cells after H2O2 exposure; format: cell-based, human
# Procedure: (§1) Lymphocytes were pre-treated for 18 h with Auranofin (AUF, with the concentration 1 μg/mL for NK cells and 0.5 μg/mL for TIL, if not indicated differently), DL-Sulforaphane (SUL) or Dimethyl Fumarate (DMF) (all Sigma-Aldrich) at indicated concentrations.
# (§2) For Nrf2 inhibition, NK cells were treated with 50 μM ML-385 (Sigma-Aldrich) in parallel. For H2O2 treatment, lymphocyte cells were washed and resuspended to 1×10^6 cells/mL in medium and exposed to indicated H2O2 (Sigma-Aldrich) concentration for 1 h at 37° C. Cells were washed with medium and then used for further experiments. For monocyte experiments, autologous NK cell-monocytes or TIL-monocytes were used. NK cells/TIL were isolated and pre-treated with 0.5 μg/mL AUF, as described above, and co-cultured with unstimulated at the ratio, 1:2 M:NK, or stimulated monocytes at the ratio, 1:1 M:NK, if not indicated otherwise. Stimulated monocytes were activated with 100 ng/ml PMA for 1 min, washed and added at indicated ratio, the number of NK cell/TIL was kept constant. As control, H2O2 was used at indicated concentration. […]
# For cytokine release assay, NK cells and TIL were cultured with indicated tumour cells at the effector target ratio 4:1 (E:T) for 24 h in U-bottom plates. IFNγ secretion was measured using human IFN-γ ELISA development kit (Mabtech) following the manufacturer's instructions.
# NK cells [2] = test: Viability of pre-treated NK cells after H2O2 treatment (flow cytometry); format: cell-based, human; conditions: alive NK cells 4 h after H2O2 treatment, vs untreated NK cells
# Procedure: as §1, §2
# All antibodies (see Table 1) and FACS reagents were used according to manufactures recommendation, if not stated otherwise. […] Samples were fixed with 2% PFA (Thermo scientific) for 15 min before acquired on a NovoCyte (ACEA Biosciences) and analysed using FlowJo Software (TreeStar).
# [3] = test system: tumour infiltrating lymphocytes (TIL); test: [Cr51]-release assay: lysis of autologous tumour cells by pre-treated TIL; format: cell-based, human
# Procedure: Melanoma patient derived TIL and CD19 directed CAR T cells were generated as previously described (Magalhaes et al., 2018; Lövgren et al., 2020).
# as §1
# (§3) For Nrf2 inhibition, NK cells were treated with 50 μM ML-385 (Sigma-Aldrich) in parallel. For H2O2 treatment, lymphocyte cells were washed and resuspended to 1×10^6 cells/mL in medium and exposed to indicated H2O2 (Sigma-Aldrich) concentration for 1 h at 37° C. Cells were washed with medium and then used for further experiments. For monocyte experiments, autologous NK cell-monocytes or TIL-monocytes were used. NK cells/TIL were isolated and pre-treated with 0.5 μg/mL AUF, as described above, and co-cultured with unstimulated at the ratio, 1:2 M:NK, or stimulated monocytes at the ratio, 1:1 M:NK, if not indicated otherwise. Stimulated monocytes were activated with 100 ng/ml PMA for 1 min, washed and added at indicated ratio, the number of NK cell/TIL was kept constant. As control, H2O2 was used at indicated concentration. Cells were co-cultured for 2 h and then effector cells were stained for intracellular ROS (see flow cytometry) or used as effector cells in Cr^51 release assay (E:T ratio 10:1).
# (§4) For cytotoxic assay, a standard 4 h [Cr^51]-release assay was used. Briefly, tumour cells were harvested and labeled with 51Cr (PerkinElmer) and used as target cells. Effector cells, NK cells and T cells, were co-cultured in 96-well V-bottom plate with indicated tumour cells at the stated effector target ratio (E:T). The supernatant was collected onto LUMA plates (Perkin-Elmer) and radioactivity/tumour cell lysis was detected by MicroBeta2 (Perkin Elmer). Target cell killing measured by % specific lysis and calculated using the formula: ((experimental release-spontaneous release)/(maximum release-spontaneous release))*100.
# NK cells [4] = test: NK cells co-cultured with PMA-activated autologous monocytes: intracellular ROS and K562 lysis; format: cell-based, human
# Procedure: as §3
# Monocytes were stimulated with 100 ng/ml PMA for 1 min and washed with HBSS (Gibco). Cells were resuspended in HBSS 5% FBS and added to a 96-well Optiplate (Perkin Elmer) containing HBSS 5% FBS and Luminol (56 μM; Sigma). Luminescence was measured immediately using a EnSpire plate reader (Perkin Elmer).
# For detection of intracellular ROS levels, for NK cells CellROX™ Deep Red Reagent (Invitrogen) were used. Briefly, NK cells were stained with 2.5 μM CellROX solution in RPMI for 30 min at 37° C. and then stained for flow cytometry with anti-CD56 and anti-CD3 (both Biolegend).
# as §4
# NK cells [5] = test: ADCC: NK cells with RAJI cells coated with Rituximab or Ofatumumab; format: cell-based, human
# Procedure: Lymphocytes were isolated and pre-treated when indicated, with compound and H2O2, as described above. For degranulation/measuring CD107a expression, NK cells were co-cultured with K562 tumour cells at an effector target ratio 1:1 in the presence of anti-CD107a in U-bottom plates. After 2 h, GolgiStop™ and GolgiPlug™ (BD Bioscience) were added and cells were harvested after an additional 4 h co-culture and stained for CD56 and CD3, as described above. For positive control, 25 ng/ml PMA (Sigma Aldrich) and 500 ng/mL Ionomycin (Sigma Aldrich) were added.
# as §4
# For analyzing ADCC, NK cells were cultured with RAJI cells and Rituximab (0.5 μg/mL, MabThera, Roche) or Ofatumumab (0.05 μg/mL, Arzerra, Novartis).
# NK cells [6] = test: Phenotype analysis of NK cell surface markers (flow cytometry); format: cell-based, human
# Procedure: All antibodies (see Table 1) and FACS reagents were used according to manufactures recommendation, if not stated otherwise. All antibodies had been titrated for optimal signal-to-noise ratio and all staining's were performed in PBS supplemented with 1% FBS. All staining's contained a live/dead marker. Samples were fixed with 2% PFA (Thermo scientific) for 15 min before acquired on a NovoCyte (ACEA Biosciences) and analysed using FlowJo Software (TreeStar).
# For evaluating CD16 expression, NK cells were treated as described above. After H2O2 treatment, NK cells were incubated for 2 h in RPMI 2% AB serum, stained with anti-CD3, anti-CD56 and anti-CD16 and analyzed.
# Nrf2 = target: T1, Nrf2 (Homo sapiens, UniProt Q16236); conditions: presumably via inhibition of TrxR (Saei et al., 2020); cited from earlier work
# T1 sequence (Q16236 1-605): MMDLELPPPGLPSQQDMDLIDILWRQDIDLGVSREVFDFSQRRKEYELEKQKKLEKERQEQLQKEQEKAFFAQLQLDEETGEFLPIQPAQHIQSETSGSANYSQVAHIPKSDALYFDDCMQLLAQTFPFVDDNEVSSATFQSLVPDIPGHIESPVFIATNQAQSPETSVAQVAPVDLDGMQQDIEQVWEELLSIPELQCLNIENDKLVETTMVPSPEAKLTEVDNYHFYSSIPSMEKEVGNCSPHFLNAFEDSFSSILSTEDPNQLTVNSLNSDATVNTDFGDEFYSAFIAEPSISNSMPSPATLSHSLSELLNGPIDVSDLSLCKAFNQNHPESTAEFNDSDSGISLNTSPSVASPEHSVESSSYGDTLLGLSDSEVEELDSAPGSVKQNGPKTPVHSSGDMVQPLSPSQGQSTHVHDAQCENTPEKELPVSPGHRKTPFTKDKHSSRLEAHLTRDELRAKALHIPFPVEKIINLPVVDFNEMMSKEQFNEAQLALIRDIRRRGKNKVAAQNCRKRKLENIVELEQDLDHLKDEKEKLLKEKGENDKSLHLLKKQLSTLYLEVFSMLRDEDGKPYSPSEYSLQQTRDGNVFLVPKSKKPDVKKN
# [7] = upon addition of H2O2, vs control NK cells
smiles,measurement,setting,value
"CC(=O)OC[C@H]1O[C@@H]([S-])[C@H](OC(C)=O)[C@@H](OC(C)=O)[C@@H]1OC(C)=O.CCP(CC)CC.[Au+] [AUF, Auranofin]",Difference between 18 h and 24 h pre-treatment or 30 min pulse followed by 17.5 h incubation,"NK cells [1]; NK cells, IFNγ release",no difference
same,Cytokine release (IFNγ) capacity of NK cells following exposure to H2O2,NK cells [1]; vs untreated NK cells,improved
same,Viability of NK cells following exposure to H2O2,NK cells [2],improved viability
same,Lysis of autologous tumour cells by TIL after AUF removal,"[3]; 0-72 h after AUF removal, H2O2",increased lysis of autologous tumour cells
same,Specific lysis of autologous tumour cells by TIL,"[3]; KADA, also in the absence of ROS",clearly higher
same,Time after AUF withdrawal until which increased lysis by TIL lasted,[3]; highest AUF concentration,72 h
same,Protection of NK cells from monocyte-derived ROS,NK cells [4],protects NK cells from monocyte-derived ROS
same,Intracellular ROS in NK cells co-cultured with activated monocytes,"NK cells [4]; 0.5 μg/mL AUF, 2 h co-culture, vs controls",significantly lower levels of intracellular ROS
same,Killing of K562 target cells by NK cells co-cultured with activated monocytes,NK cells [4]; also at the highest monocyte to NK cell ratio,significantly higher efficiency
same,Ability of NK cells to degranulate in response to anti-CD20 coated RAJI cells,NK cells [5]; [7],significant increase
same,Ability of NK cells to lyse anti-CD20 coated RAJI cells,NK cells [5]; [7],significant increase
same,Capacity of NK cells to recognize anti-CD20 coated RAJI cells,NK cells [5]; without the presence of ROS,increased capacity to recognize the anti-CD20 coated RAJI cells
same,Differences in NK cell surface markers with and without AUF pre-treatment,"NK cells [6]; DNAM-1, granzyme B, perforin, CD57, CD69, NKG2A, NKG2D, NKp40, NKp46",few differences
same,Frequency of NK cells expressing CD16 after exposure to H2O2,NK cells [6]; untreated compared to AUF pre-treated NK cells,significant decrease in frequency of untreated NK cells expressing CD16
same,NKp30 expression on NK cells,NK cells [6]; upon exposure to H2O2,increased expression
same,DNAM-1 and NKp46 on NK cells,NK cells [6]; with exposure to H2O2,reduced frequency of positive NK cells and/or reduced cell surface levels
same,"DNAM-1, CD69 and NKG2D on NK cells",NK cells [6]; without exposure to H2O2,reduced frequency of positive NK cells and/or reduced cell surface levels
same,Activation of Nrf2,Nrf2,strong activator of Nfr2
